Here are results for three compounds from patent publication US20220362386A1, “LIQUID COMPOSITIONS COMPRISING A LEVODOPA AMINO ACID CONJUGATE AND USES THEREOF” (NeuroDerm, Ltd., priority 2019, published 2022).

Counter-ions that a name gives are not always drawn. Like-named read-outs stand apart in the source and are kept apart here. Non-standard residues stand in square brackets, D forms with d. Residues, ends and D or L forms follow the SMILES beside them. Dopa = N[C@@H](Cc1ccc(O)c(O)c1)C(=O)O

Data set [1] can be described thus: Comparative formulation tests, physical stability (Tables 32a-c, 33a-c). To be noted: LDAA TFA salt/CD formulation; for Physical stability (visual), Day 1: Day 1, room temperature; for Physical stability (visual), Day 2: Day 2, room temperature; for Physical stability (visual), Day 5: Day 5, room temperature after two days at 2-8° C.; for Physical stability (visual), Day 6: Day 6, room temperature after two days at 2-8° C.; for Physical stability (visual), Day 40: Day 40, returned to 2-8° C. Type of data set: physicochemical. The protocol: It is noted that the formulations were similarly to those above; however, CD was added, and further, the amounts of the antioxidants, i.e., ascorbic acid and NAC, were added at three different concentrations, as detailed in Tables 32a-c below. Further, an additional amount of arginine was added to the solution in order to adjust the pH to a physiologically acceptable pH.
The formulations prepared as detailed in Tables 32a, 32b and 32c were (a) held at room temperature for two days; (b) transferred to a refrigerator (2-8° C.) for two days; and (c) transferred from the refrigerator to room temperature for an additional two days, during which they were assessed again for precipitants. The formulations were then returned to the refrigerator (2-8° C.) and assessed for precipitants on day 40. The physical stability of each formulation was assessed on the first two days and again on the last two days. The physical stability of the formulations was assessed visually. A clear solution was considered to be stable, while a solution comprising precipitants was considered to be physically unstable. The stability results of the formulations of Tables 32a, 32b and 32c are detailed in Tables 33a, 33b and 33c, respectively.

The test system of another data set is human plasma. The data set can be described thus: Protein binding, equilibrium dialysis method. It is filed as in vitro ADME. To be noted: 1.0E-05M; 37° C., 4 h. The procedure:
(§1) The protein binding values of various LDAA compounds in their TFA salt form (10^−5M) were tested in human plasma. The equilibrium dialysis technique was used to separate the fraction of the test compound that was unbound from the fraction of the test compound that bound to proteins during the test. The test was performed on 96-well plates in a dialysis block constructed from Teflon™.
(§2) The protein containing matrix used was human plasma, wherein the assay matrix was human serum albumin and alpha-1 acid glycoprotein. The protein matrix was spiked with each test compound at 10 μM (by default, n=2) with a final DMSO concentration of 1%. The dialysate compartment is loaded with phosphate buffered saline (PBS, pH 7.4), and the sample compartment was loaded with an equal volume of the spiked protein matrix. The dialysis plate was then sealed and incubated at 37° C. for 4 h.
(§3) Following the incubation, samples were taken from each compartment, diluted with PBS followed by the addition of acetonitrile, after which the samples were centrifuged. The supernatants were collected and analyzed by HPLC-MS/MS. The HPLC tests included a binary LC pump with an autosampler, a C18 column (2×20 mm), and gradient elution. The HPLC conditions were adjusted when necessary.
(§4) A control sample (n=2) was prepared from the spiked protein matrix in the same manner; however, no dialysis was performed on the control. It is noted that the control sample served as the bases for the recovery determination.
(§5) Acebutolol, quinidine, and warfarin were used in each assay as reference compounds, wherein it is known that those reference compounds provide low, medium and high human plasma protein binding values, respectively.
(§6) The % of the tested compound that is bound to proteins and the recovery values were calculated as follows:
(§7) Protein binding (%)=100×(Areap−Areab)/Areap
(§8) Recovery (%)=100×(Areap−Areab)/Areac
(§9) The determination of the recovery % serves as an indicator of reliability of the calculated protein binding value. […] This is most likely due to non-specific binding or degradation of the test compound. It is noted that a recovery of above 60% is considered to be reliable, while under 60% recovery, the results of the test are considered to be unreliable.
For orientation: In equilibrium dialysis only unbound substance equilibrates across the membrane.

A short description of data set [2]: Protein binding, equilibrium dialysis method. It is filed as in vitro ADME, human. To be noted: human, human plasma, pH 7.4, 1.0E-05M. The protocol:
as §1, §2, §3, §4, §5, §6, §7, §8, §9

The next data set is described as follows: in vitro. As to conditions: human. The procedure: Caco-2 cells are human intestinal epithelial cells derived from a colorectal adenocarcinoma.
The assays are performed in both the apical to basolateral (A-B) and the B-A direction. The test compound is prepared at 10 μM in HBSS-HEPES (pH 7.4) with a final DMSO concentration of 1%. The working solution is centrifuged, and the supernatant is added to the donor side. The assay plate is incubated at 37° C. with gentle shaking for 60 min or 40 min for the A-B or B-A assay, respectively. For Pgp substrate assessment, the assays are run with and without 100 μM verapamil on both the A and B sides. For BCRP substrate assessment, the assays are run with and without 10 μM Ko143 on both the A and B sides. For MRP2 substrate assessment, the assays are run with and without 100 μM MK571 on both the A and B sides. Samples are aliquoted from the donor side at time zero and the end point, and from the receiver side at the end point.
Propranolol (highly permeable), labetalol (moderately permeable), ranitidine (poorly permeable), and colchicine (P-glycoprotein substrate), estrone-3-sulfate (BCRP substrate), or CDCF (MRP2 substrate) are included in each assay.
Samples are analyzed by HPLC-MS/MS using selected reaction monitoring. The HPLC system consists of a binary LC pump with an autosampler, a C-18 column, and a gradient. Conditions may be adjusted when necessary.
Fluorescein permeability is assessed in the A-B direction at pH 7.4 on both sides after the permeability assay with the test compound. The cell monolayer with a fluorescein permeability of less than 1.5×10−6 cm/s is considered intact.
The apparent permeability coefficient (Papp) of the test compound and its recovery are calculated as follows: […]
A is the surface area of the cell monolayer (0.11 cm^2). C is concentration of the test compound, expressed as peak area. D denotes donor and R is receiver. 0, mid, and end denote time zero, mid-point, and end of the incubation. Δt is the incubation time. V is the volume of the donor or receiver.
The permeability capabilities of the several LDAA compounds, in their TFA salt form, were determined using the Caco-2 B-A method.

Setting [3] is: NB 144-15, ~0.1% Asc + ~0.1% NAC.
The mark [4] stands for this setting: NB 144-18, ~0.4% Asc + ~0.4% NAC.
[5] abbreviates: NB 144-20, ~0.8% Asc + ~0.8% NAC.
The mark [6] stands for this setting: Caco-2, pH 7.4, Percent Recovery 1st.
The mark [7] stands for this setting: Caco-2, pH 7.4, Percent Recovery 2nd.
[8] abbreviates: Caco-2, pH 7.4, Percent Recovery Mean.
Setting [9] is: Caco-2, pH 7.4, Permeability 1st.
The mark [10] stands for this setting: Caco-2, pH 7.4, Permeability 2nd.
Where [11] appears, read: Caco-2, pH 7.4, Permeability Mean.

The Papp B→A is the apparent permeability from the basolateral to the apical side of a cell layer. `N[C@@H](CSC[C@@H](NC(=O)[C@@H](N)Cc1ccc(O)c(O)c1)C(=O)O)C(=O)O` (single isomer, unassigned; peak 1) [LD-LA1 TFA salt, Levodopa Lanthionine Peak 1 TFA Salt]: the “Physical stability (visual), Day 1” value was “Stable” in data set [1] (setting [3]), “Precipitated” in data set [1] (setting [4]) and “Stable” in data set [1] (setting [5]). In addition, the “Physical stability (visual), Day 2” value is on record as “Stable” in data set [1] (setting [3]), “Precipitated” in data set [1] (setting [4]) and “Stable” in data set [1] (setting [5]). Also, the “Physical stability (visual), Day 5” value in data set [1] (setting [3]) is recorded as “Stable”; in data set [1] (setting [4]) it was “Precipitated”; in data set [1] (setting [5]), “Stable”. Also, the “Physical stability (visual), Day 6” value in data set [1] (setting [3]) is “Stable”; in data set [1] (setting [4]), “Precipitated”; in data set [1] (setting [5]) it was “Stable”. Also, the “Physical stability (visual), Day 40” value was “Stable” in data set [1] (setting [3]), “Precipitated” in data set [1] (setting [4]) and “Stable” in data set [1] (setting [5]). In addition, the “% Protein Bound 1st” value with human plasma stood at 24.4%. Further, in the data set with human plasma, the “% Protein Bound 2nd” value is given as 27.8%. In the data set on human plasma, the “% Protein Bound Mean” value stood at 26%. For the same compound, the recovery at 4 h, 10 μM in data set [2] (read-out: % Recovery 1st) worked out at 75%; in data set [2] (read-out: % Recovery 2nd) it was 71%; in data set [2] (read-out: % Recovery Mean), 73%. For the same compound, the results for the recovery at 40 min, 10 μM in the data set “in vitro” (setting [6]), in the data set “in vitro” (setting [7]) and in “in vitro” (setting [8]) were 80%, 86% and 83%, respectively. Moreover, the Papp B→A at 40 min, 10 μM is 0.28 ×10⁻⁶ cm/s in “in vitro” (setting [9]), 0.22 ×10⁻⁶ cm/s in “in vitro” (setting [10]) and 0.3 ×10⁻⁶ cm/s in the data set “in vitro” (setting [11]).

Take `N=C(N)NCCC[C@H](NC(=O)[C@@H](N)Cc1ccc(O)c(O)c1)C(=O)O` [LD-Arg TFA salt, Levodopa Arginine TFA Salt]: the “Physical stability (visual), Day 1” value in data set [1] (setting [3]), in data set [1] (setting [4]) and in data set [1] (setting [5]) was “Stable” throughout. In addition, the “Physical stability (visual), Day 2” value in data set [1] (setting [3]), in data set [1] (setting [4]) and in data set [1] (setting [5]) was “Stable” throughout. In addition, the “Physical stability (visual), Day 5” value in data set [1] (setting [3]), in data set [1] (setting [4]) and in data set [1] (setting [5]) was “Stable” in each case. Besides, the “Physical stability (visual), Day 6” value in data set [1] (setting [3]), in data set [1] (setting [4]) and in data set [1] (setting [5]) was “Stable” throughout. The “Physical stability (visual), Day 40” value in data set [1] (setting [3]), in data set [1] (setting [4]) and in data set [1] (setting [5]) was “Stable” each time. The “% Protein Bound 1st” value in the data set on human plasma is reported as 44.1%. For the same compound, the “% Protein Bound 2nd” value with human plasma is on record as 26.4%. Moreover, the “% Protein Bound Mean” value in the data set on human plasma came to 35%. Further, the recovery at 4 h, 10 μM in data set [2] (read-out: % Recovery 1st) turned out to be 6%; in data set [2] (read-out: % Recovery 2nd), 5%; in data set [2] (read-out: % Recovery Mean), 6%. Besides, the recovery at 40 min, 10 μM in “in vitro” (setting [6]) was 82%; in “in vitro” (setting [7]), 89%; in “in vitro” (setting [8]) it was 85%. In addition, the Papp B→A at 40 min, 10 μM in “in vitro” (setting [9]) is 0.03 ×10⁻⁶ cm/s; in the data set “in vitro” (setting [10]), 0.02 ×10⁻⁶ cm/s; in the data set “in vitro” (setting [11]), less than 0.03 ×10⁻⁶ cm/s.

Consider `NC(=O)CC[C@H](NC(=O)[C@@H](N)Cc1ccc(O)c(O)c1)C(=O)O` [LD-Gln TFA salt, Levodopa Glutamine TFA Salt] (H-[Dopa]-Gln-OH), for which, in the data set on human plasma, the “% Protein Bound 1st” value came to 99.7%. In the data set with human plasma, the “% Protein Bound 2nd” value is on record as 99.8%. In addition, the “% Protein Bound Mean” value in the data set on human plasma worked out at 99%. Besides, the values for the recovery at 4 h, 10 μM in data set [2] (read-out: % Recovery 1st), in data set [2] (read-out: % Recovery 2nd) and in data set [2] (read-out: % Recovery Mean) were 77%, 78% and 78%, respectively. Moreover, the recovery at 40 min, 10 μM amounted to 81% in the data set “in vitro” (setting [6]), 92% in “in vitro” (setting [7]) and 87% in the data set “in vitro” (setting [8]). The apparent permeability from basolateral to apical (Papp B→A) at 40 min, 10 μM turned out to be 1.01 ×10⁻⁶ cm/s in “in vitro” (setting [9]), 0.79 ×10⁻⁶ cm/s in the data set “in vitro” (setting [10]) and 0.9 ×10⁻⁶ cm/s in “in vitro” (setting [11]).
